This passage reports melting point results from patent publication US20050020576A1, “Kappa agonist compounds and pharmaceutical formulations thereof” (priority 1996, published 2005).

Each structure is given as a SMILES string. Where a name gives a salt, the structure may show the parent alone. Bounds are passed on as bounds.

The melting point is the temperature of the solid-liquid transition.

`CN(C(=O)Cc1ccc(OCc2ccccc2)c(NS(C)(=O)=O)c1)[C@H](CN1CCCC1)c1ccccc1` (as salt: HCl) [Example 123, 2-(3-N-Methylsulfonamido-3-amino-4-benzyloxyphenyl)-N-methyl-N-[(1S)-1-phenyl-2-(1-pyrrolidinyl)ethyl]acetamide] returned a melting point of 219 to 221 °C.
In the case of `CN(C(=O)Cc1ccccc1[N+](=O)[O-])[C@H](CN1CCCC1)c1cccc([N+](=O)[O-])c1` (as salt: HCl) it was 258 to 259 °C; in that of `CNS(=O)(=O)c1ccc(CC(=O)N2CCN(C(=O)OC)CC2CN2CCCC2)cc1` (racemic) (as salt: hydrochloride) [Example 1f, Methyl-4-[-4-[N-methylamino)sulfamyl]phenyl)acetyl]-3-(R,S)-[(1-pyrrolidinyl)methyl]-1-piperazinecarboxylate hydrochloride], 135 to 140 °C.
For the compound `CN(C(=O)Cc1cc(Cl)c(Cl)cc1[N+](=O)[O-])[C@H](CN1CCCC1)c1cccc([N+](=O)[O-])c1` (as salt: HCl), the melting point is 165 °C (dec.).
In the case of `COc1cccc(C(CN2CCCC2)N(C)C(=O)Cc2ccccc2NS(C)(=O)=O)c1` (racemic) (as salt: sulfonic acid salt) [Example 3uu, (R,S)-1-[2-(Methanesulfonylamino)phenyl-N-methylacetamido]-1-(3-methoxyphenyl)-2-(1-pyrrolidino)-ethane, methanesulfonic acid salt] it was 135 °C (dec.).
In the case of `COc1cc(CC(=O)N(C)[C@H](CN2CCCC2)c2ccccc2)c(S(=O)(=O)N2CCOCC2)cc1OC` (as salt: HCl) [Example 140, 2-[2-N-(Morpholinesulfamoyl)-4,5-dimethoxyphenyl]-N-methyl-N-[(1S)-1-phenyl-2-[1-(pyrrolidinyl)ethyl]]acetamide] it was 229 to 231 °C.
As for `CN(C(=O)Cc1cc(Cl)c(Cl)cc1[N+](=O)[O-])[C@@H]1c2ccccc2C[C@H]1N1CCCC1` (racemic) (as salt: HCl), the figure is 284 to 287 °C; as for `CNS(=O)(=O)c1ccccc1CC(=O)N(C)C(CN1CCCC1)c1ccccc1F` (racemic) (as salt: salt) [Example 147], 232 to 234 °C.
As to `CN(C(=O)Cc1ccc(C(F)(F)F)cc1NCC(=O)O)C1CCCCC1N1CCCC1` (stereo not drawn) (as salt: HCl), the melting point is 178 to 180 °C (dec.).
As for `Cc1ccc(S(=O)(=O)N2CCN(C(=O)Cc3ccc(Cl)c(Cl)c3)[C@H](CN3CCCC3)C2)cc1` (as salt: hydrochloride) [(R-3l), (R)-4-(4-Methyphenylsulfonyl)-1-[(3,4-dichlorophenyl)acetyl]-2-[(1-Pyrrolidinyl)methyl]-piperazine hydrochloride], the figure is 240 °C (dec.).
In the case of `O=C(Cc1ccc(Cl)c(Cl)c1)N1CCN(C(=O)C(F)(F)F)C[C@H]1CN1CCCC1` (as salt: hydrochloride) [(R-3h), (R)-4-Trifluoroacetyl-1-(3,4-dichlorophenyl)acetyl]-2-[(1-pyrrolidinyl)methyl]-piperazine hydrochloride] it was 145 to 147 °C; in that of `COc1cc2c(cc1S(=O)(=O)N(C)Cc1ccccc1)[C@@H](N(C)C(=O)Cc1ccc(Cl)c(Cl)c1)[C@H](N1CCCC1)CC2` (racemic) (as salt: HCl), 150 °C (dec.); in that of `CN(C(=O)C(c1ccccc1)c1ccccc1)[C@@H]1c2ccccc2C[C@H]1N1CCCC1` (racemic) (as salt: HCl), more than 300 °C.
Consider `CN(C(=O)Cc1ccccc1NS(C)(=O)=O)C(CN1CCCC1)c1cccc(O)c1` (racemic) (as salt: sulfonic acid salt) [Example 3vv, (R,S)-1-[2-(Methanesulfonylamino)phenyl-N-methylacetamido]-1-(3-hydroxyphenyl)-2-(1-pyrrolidino)-ethane, methanesulfonic acid salt], for which the melting point lay within 232 to 234 °C.
In the case of `CNS(=O)(=O)c1cccc(CC(=O)N(C)[C@@H]2CCCC[C@H]2N2CCCC2)c1OC.Cl` (racemic) it was 168 to 170 °C.
